Source: PubChem BioAssay (NCI)
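Test compounds were applied to cells in 96-well plates for 48 hours at 5 doses. Definition used: TGI = concentration required for complete inhibition of growth.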

What was measured:
Assay in all cases: inhibition of tumour cell growth, NCI panel, 48 h
786-0 renal = system: 786-0 renal
A498 renal = system: A498 renal
A549 NSCLC = system: A549 NSCLC
ACHN renal = system: ACHN renal
BT-549 breast = system: BT-549 breast
CAKI-1 renal = system: CAKI-1 renal
CCRF-CEM leukemia = system: CCRF-CEM leukemia
COLO 205 colon = system: COLO 205 colon
DU-145 prostate = system: DU-145 prostate
EKVX NSCLC = system: EKVX NSCLC
HCT-116 colon = system: HCT-116 colon
HCT-15 colon = system: HCT-15 colon
HL-60(TB) leukemia = system: HL-60(TB) leukemia
HOP-62 NSCLC = system: HOP-62 NSCLC
HOP-92 NSCLC = system: HOP-92 NSCLC
HS 578T breast = system: HS 578T breast
HT29 colon = system: HT29 colon
IGROV1 ovarian = system: IGROV1 ovarian
K-562 leukemia = system: K-562 leukemia
KM12 colon = system: KM12 colon
LOX IMVI melanoma = system: LOX IMVI melanoma
M14 melanoma = system: M14 melanoma
MALME-3M melanoma = system: MALME-3M melanoma
MCF7 breast = system: MCF7 breast
MDA-MB-231 breast = system: MDA-MB-231 breast
MDA-MB-435 = system: MDA-MB-435
MDA-N = system: MDA-N
MOLT-4 leukemia = system: MOLT-4 leukemia
NCI-H226 lung = system: NCI-H226 lung
NCI-H23 lung = system: NCI-H23 lung
NCI-H460 lung = system: NCI-H460 lung
NCI-H522 lung = system: NCI-H522 lung
NCI/ADR-RES ovarian = system: NCI/ADR-RES ovarian
OVCAR-3 ovarian = system: OVCAR-3 ovarian
OVCAR-4 ovarian = system: OVCAR-4 ovarian
OVCAR-5 ovarian = system: OVCAR-5 ovarian
OVCAR-8 ovarian = system: OVCAR-8 ovarian
RPMI-8226 leukemia = system: RPMI-8226 leukemia
SF-268 CNS = system: SF-268 CNS
SF-295 CNS = system: SF-295 CNS
SF-539 CNS = system: SF-539 CNS
SK-MEL-2 melanoma = system: SK-MEL-2 melanoma
SK-MEL-28 melanoma = system: SK-MEL-28 melanoma
SK-MEL-5 melanoma = system: SK-MEL-5 melanoma
SK-OV-3 ovarian = system: SK-OV-3 ovarian
SN12C renal = system: SN12C renal
SNB-75 CNS = system: SNB-75 CNS
SR leukemia = system: SR leukemia
SW-620 colon = system: SW-620 colon
T-47D breast = system: T-47D breast
U251 CNS = system: U251 CNS
UACC-62 melanoma = system: UACC-62 melanoma
UO-31 renal = system: UO-31 renal
HCC-2998 colon = system: HCC-2998 colon
RXF 393 renal = system: RXF 393 renal
SNB-19 CNS = system: SNB-19 CNS
TK-10 renal = system: TK-10 renal
UACC-257 melanoma = system: UACC-257 melanoma
PC-3 prostate = system: PC-3 prostate

## CCC1=C(C)C(=O)N/C1=C\c1[nH]c(C)c([C@H](C)CCN)c1C
786-0 renal
  TGI: 28.9 µM
A498 renal
  TGI: 33.4 µM
A549 NSCLC
  TGI: 34.3 µM
ACHN renal
  TGI: 32.9 µM
BT-549 breast
  TGI: 29.9 µM
CAKI-1 renal
  TGI: 32.3 µM
CCRF-CEM leukemia
  TGI: > 100 µM
COLO 205 colon
  TGI: 31.1 µM
DU-145 prostate
  TGI: 32.5 µM
EKVX NSCLC
  TGI: 28.1 µM
HCT-116 colon
  TGI: 27.6 µM
HCT-15 colon
  TGI: 28.6 µM
HL-60(TB) leukemia
  TGI: 42.4 µM
HOP-62 NSCLC
  TGI: 32.7 µM
HOP-92 NSCLC
  TGI: 28.6 µM
HS 578T breast
  TGI: 28.6 µM
HT29 colon
  TGI: 29.6 µM
IGROV1 ovarian
  TGI: 32 µM
K-562 leukemia
  TGI: > 100 µM
KM12 colon
  TGI: 30.7 µM
LOX IMVI melanoma
  TGI: 28.7 µM
M14 melanoma
  TGI: 30.4 µM
MALME-3M melanoma
  TGI: 32.8 µM
MCF7 breast
  TGI: 32.9 µM
MDA-MB-231 breast
  TGI: 32.7 µM
MDA-MB-435
  TGI: 29.6 µM
MDA-N
  TGI: 29.1 µM
MOLT-4 leukemia
  TGI: > 100 µM
NCI-H226 lung
  TGI: 31.8 µM
NCI-H23 lung
  TGI: 26.8 µM
NCI-H460 lung
  TGI: 35.5 µM
NCI-H522 lung
  TGI: 24.4 µM
NCI/ADR-RES ovarian
  TGI: 49 µM
OVCAR-3 ovarian
  TGI: 30.1 µM
OVCAR-4 ovarian
  TGI: 26.7 µM
OVCAR-5 ovarian
  TGI: 31.7 µM
OVCAR-8 ovarian
  TGI: 28.8 µM
RPMI-8226 leukemia
  TGI: > 100 µM
SF-268 CNS
  TGI: 30.4 µM
SF-295 CNS
  TGI: 31.5 µM
SF-539 CNS
  TGI: 15.5 µM
SK-MEL-2 melanoma
  TGI: 35.1 µM
SK-MEL-28 melanoma
  TGI: 32.5 µM
SK-MEL-5 melanoma
  TGI: 31.4 µM
SK-OV-3 ovarian
  TGI: 31.5 µM
SN12C renal
  TGI: 29.8 µM
SNB-75 CNS
  TGI: 22.6 µM
SR leukemia
  TGI: > 100 µM
SW-620 colon
  TGI: 35.1 µM
T-47D breast
  TGI: 26.2 µM
U251 CNS
  TGI: 28.9 µM
UACC-62 melanoma
  TGI: 31.5 µM
UO-31 renal
  TGI: 29.2 µM

## COc1ccc(-c2cn3c(nc4ccccc43)c(/C=C/c3cccs3)n2)cc1
786-0 renal
  TGI: > 100 µM
A498 renal
  TGI: > 100 µM
A549 NSCLC
  TGI: > 100 µM
ACHN renal
  TGI: > 100 µM
BT-549 breast
  TGI: > 100 µM
COLO 205 colon
  TGI: > 100 µM
DU-145 prostate
  TGI: > 100 µM
HCC-2998 colon
  TGI: > 100 µM
HCT-116 colon
  TGI: > 100 µM
HCT-15 colon
  TGI: > 100 µM
HL-60(TB) leukemia
  TGI: 89.7 µM
HOP-62 NSCLC
  TGI: > 100 µM
HOP-92 NSCLC
  TGI: > 100 µM
HS 578T breast
  TGI: > 100 µM
HT29 colon
  TGI: > 100 µM
K-562 leukemia
  TGI: > 100 µM
KM12 colon
  TGI: > 100 µM
LOX IMVI melanoma
  TGI: > 100 µM
M14 melanoma
  TGI: > 100 µM
MALME-3M melanoma
  TGI: > 100 µM
MCF7 breast
  TGI: > 100 µM
MDA-MB-231 breast
  TGI: > 100 µM
MDA-MB-435
  TGI: 36.5 µM
MDA-N
  TGI: 25.1 µM
NCI-H226 lung
  TGI: > 100 µM
NCI-H23 lung
  TGI: > 100 µM
NCI-H460 lung
  TGI: > 100 µM
NCI/ADR-RES ovarian
  TGI: 51.7 µM
OVCAR-3 ovarian
  TGI: > 100 µM
OVCAR-4 ovarian
  TGI: > 100 µM
OVCAR-5 ovarian
  TGI: > 100 µM
RPMI-8226 leukemia
  TGI: 44.1 µM
RXF 393 renal
  TGI: > 100 µM
SF-268 CNS
  TGI: > 100 µM
SF-539 CNS
  TGI: > 100 µM
SK-MEL-2 melanoma
  TGI: 45.6 µM
SK-MEL-28 melanoma
  TGI: > 100 µM
SK-MEL-5 melanoma
  TGI: > 100 µM
SK-OV-3 ovarian
  TGI: > 100 µM
SN12C renal
  TGI: > 100 µM
SNB-19 CNS
  TGI: > 100 µM
SNB-75 CNS
  TGI: > 100 µM
SR leukemia
  TGI: 15.4 µM
SW-620 colon
  TGI: > 100 µM
T-47D breast
  TGI: > 100 µM
TK-10 renal
  TGI: > 100 µM
U251 CNS
  TGI: > 100 µM
UACC-257 melanoma
  TGI: > 100 µM
UACC-62 melanoma
  TGI: > 100 µM
UO-31 renal
  TGI: > 100 µM

## O=C(Nc1c(Cl)cccc1Cl)c1c(Cl)c(Cl)c(Cl)c(Cl)c1-c1nc2ccccc2[nH]1
786-0 renal
  TGI: > 100 µM
A498 renal
  TGI: 54.6 µM
A549 NSCLC
  TGI: > 100 µM
ACHN renal
  TGI: > 100 µM
BT-549 breast
  TGI: > 100 µM
CAKI-1 renal
  TGI: > 100 µM
CCRF-CEM leukemia
  TGI: > 100 µM
COLO 205 colon
  TGI: > 100 µM
DU-145 prostate
  TGI: > 100 µM
EKVX NSCLC
  TGI: > 100 µM
HCC-2998 colon
  TGI: > 100 µM
HCT-116 colon
  TGI: > 100 µM
HCT-15 colon
  TGI: > 100 µM
HL-60(TB) leukemia
  TGI: > 100 µM
HOP-62 NSCLC
  TGI: > 100 µM
HOP-92 NSCLC
  TGI: > 100 µM
HS 578T breast
  TGI: > 100 µM
HT29 colon
  TGI: > 100 µM
IGROV1 ovarian
  TGI: > 100 µM
K-562 leukemia
  TGI: > 100 µM
KM12 colon
  TGI: > 100 µM
LOX IMVI melanoma
  TGI: > 100 µM
M14 melanoma
  TGI: > 100 µM
MALME-3M melanoma
  TGI: > 100 µM
MCF7 breast
  TGI: > 100 µM
MDA-MB-435
  TGI: > 100 µM
MDA-N
  TGI: > 100 µM
MOLT-4 leukemia
  TGI: > 100 µM
NCI-H226 lung
  TGI: > 100 µM
NCI-H23 lung
  TGI: > 100 µM
NCI-H460 lung
  TGI: > 100 µM
NCI-H522 lung
  TGI: > 100 µM
NCI/ADR-RES ovarian
  TGI: > 100 µM
OVCAR-3 ovarian
  TGI: > 100 µM
OVCAR-4 ovarian
  TGI: > 100 µM
OVCAR-5 ovarian
  TGI: > 100 µM
OVCAR-8 ovarian
  TGI: > 100 µM
PC-3 prostate
  TGI: > 100 µM
RPMI-8226 leukemia
  TGI: > 100 µM
RXF 393 renal
  TGI: 45.2 µM
SF-268 CNS
  TGI: > 100 µM
SF-295 CNS
  TGI: > 100 µM
SF-539 CNS
  TGI: > 100 µM
SK-MEL-2 melanoma
  TGI: > 100 µM
SK-MEL-28 melanoma
  TGI: > 100 µM
SK-MEL-5 melanoma
  TGI: > 100 µM
SK-OV-3 ovarian
  TGI: > 100 µM
SN12C renal
  TGI: > 100 µM
SNB-75 CNS
  TGI: 84.9 µM
SR leukemia
  TGI: > 100 µM
SW-620 colon
  TGI: > 100 µM
T-47D breast
  TGI: > 100 µM
UACC-257 melanoma
  TGI: > 100 µM
UACC-62 melanoma
  TGI: > 100 µM
UO-31 renal
  TGI: > 100 µM
